Assay results taken from the supplement of paper PMC13386468.

Assays:
Assay in all cases: IC50 for competition of protein binding to Kinobeads
Conditions in all cases: assay detail: Kinobeads competition in P. falciparum blood-stage lysate
UniProt Q8ILN8 = molecular target: UniProt Q8ILN8
UniProt Q8IBQ6 = molecular target: UniProt Q8IBQ6
UniProt Q7KQM0 = molecular target: UniProt Q7KQM0
UniProt Q8I5R7 = molecular target: UniProt Q8I5R7
UniProt C6KSR5 = molecular target: UniProt C6KSR5
UniProt Q8II22 = molecular target: UniProt Q8II22
UniProt Q8II72 = molecular target: UniProt Q8II72
UniProt Q8IB66 = molecular target: UniProt Q8IB66
UniProt Q8IKH8 = molecular target: UniProt Q8IKH8
UniProt C0H4V4 = molecular target: UniProt C0H4V4
UniProt O96198 = molecular target: UniProt O96198
UniProt Q8I1Z8 = molecular target: UniProt Q8I1Z8
UniProt C0H4A6 = molecular target: UniProt C0H4A6
UniProt Q8I502 = molecular target: UniProt Q8I502
UniProt Q8I5S4 = molecular target: UniProt Q8I5S4
UniProt Q8I2X4 = molecular target: UniProt Q8I2X4
UniProt Q8IIK2 = molecular target: UniProt Q8IIK2
UniProt Q8I3Q6 = molecular target: UniProt Q8I3Q6
UniProt C0H4L1 = molecular target: UniProt C0H4L1
UniProt Q8IIK4 = molecular target: UniProt Q8IIK4
UniProt Q8I1S0 = molecular target: UniProt Q8I1S0
UniProt Q8I3Y8 = molecular target: UniProt Q8I3Y8
UniProt Q8IJQ9 = molecular target: UniProt Q8IJQ9
UniProt Q8I3T8 = molecular target: UniProt Q8I3T8
UniProt Q8IJN7 = molecular target: UniProt Q8IJN7
UniProt C0H516 = molecular target: UniProt C0H516
UniProt Q8IHT3 = molecular target: UniProt Q8IHT3
UniProt Q8I2X0 = molecular target: UniProt Q8I2X0
UniProt Q8IDZ8 = molecular target: UniProt Q8IDZ8
UniProt C6KSY6 = molecular target: UniProt C6KSY6
UniProt Q8II92 = molecular target: UniProt Q8II92
UniProt Q8IB24 = molecular target: UniProt Q8IB24
UniProt C6KSX2 = molecular target: UniProt C6KSX2
UniProt Q8ID96 = molecular target: UniProt Q8ID96
UniProt Q8IAU0 = molecular target: UniProt Q8IAU0
UniProt Q8I5Y9 = molecular target: UniProt Q8I5Y9
UniProt Q8I328 = molecular target: UniProt Q8I328
UniProt Q8IAX6 = molecular target: UniProt Q8IAX6
UniProt O97284 = molecular target: UniProt O97284
UniProt C6KSV4 = molecular target: UniProt C6KSV4
UniProt Q8IIQ6 = molecular target: UniProt Q8IIQ6
UniProt Q8IDB7 = molecular target: UniProt Q8IDB7
UniProt Q8II79 = molecular target: UniProt Q8II79
UniProt Q8IBN5 = molecular target: UniProt Q8IBN5
UniProt Q8I3Y9 = molecular target: UniProt Q8I3Y9
UniProt Q8ID50 = molecular target: UniProt Q8ID50
UniProt C6KT19 = molecular target: UniProt C6KT19
UniProt Q8IBU2 = molecular target: UniProt Q8IBU2
UniProt Q8IAU1 = molecular target: UniProt Q8IAU1
UniProt Q8I353 = molecular target: UniProt Q8I353
UniProt Q8IIK8 = molecular target: UniProt Q8IIK8

Measured: IC50
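Further: native unpurified kinases from lysate captured on beads bearing immobilized kinase inhibitors, with bead-bound kinases quantified by mass spectrometry across compound doses.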

UniProt Q8I3Y8, sequence (Q8I3Y8 whole entry): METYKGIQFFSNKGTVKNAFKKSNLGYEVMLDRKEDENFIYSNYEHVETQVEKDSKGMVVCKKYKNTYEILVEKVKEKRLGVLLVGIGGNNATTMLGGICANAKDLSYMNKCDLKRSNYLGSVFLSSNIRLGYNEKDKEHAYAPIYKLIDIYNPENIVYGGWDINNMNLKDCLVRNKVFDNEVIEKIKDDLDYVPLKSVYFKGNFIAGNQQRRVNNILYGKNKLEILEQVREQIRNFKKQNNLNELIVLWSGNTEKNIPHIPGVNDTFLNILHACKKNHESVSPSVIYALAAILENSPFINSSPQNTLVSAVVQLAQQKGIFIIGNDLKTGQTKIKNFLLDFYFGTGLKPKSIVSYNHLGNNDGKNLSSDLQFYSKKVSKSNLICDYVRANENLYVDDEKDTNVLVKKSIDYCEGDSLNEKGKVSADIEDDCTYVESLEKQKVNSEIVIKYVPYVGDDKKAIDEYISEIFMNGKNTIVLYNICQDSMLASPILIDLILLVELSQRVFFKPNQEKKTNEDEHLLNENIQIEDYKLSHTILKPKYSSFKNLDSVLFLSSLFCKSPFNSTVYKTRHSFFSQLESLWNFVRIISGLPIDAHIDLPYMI
UniProt Q8IJN7, sequence (Q8IJN7 whole entry): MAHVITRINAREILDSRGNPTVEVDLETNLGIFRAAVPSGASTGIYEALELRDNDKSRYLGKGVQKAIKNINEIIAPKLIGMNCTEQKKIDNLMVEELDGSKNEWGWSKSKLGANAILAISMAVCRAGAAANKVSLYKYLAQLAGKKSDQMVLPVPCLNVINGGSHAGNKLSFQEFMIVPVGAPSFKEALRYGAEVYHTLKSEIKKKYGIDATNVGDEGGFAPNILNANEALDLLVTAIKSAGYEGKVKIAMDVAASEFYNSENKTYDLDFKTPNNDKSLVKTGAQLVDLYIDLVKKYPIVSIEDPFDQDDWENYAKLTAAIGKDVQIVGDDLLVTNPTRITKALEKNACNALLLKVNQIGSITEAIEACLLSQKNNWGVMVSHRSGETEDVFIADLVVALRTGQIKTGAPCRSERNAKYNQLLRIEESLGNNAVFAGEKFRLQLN
UniProt Q8IIK4, sequence (Q8IIK4 whole entry): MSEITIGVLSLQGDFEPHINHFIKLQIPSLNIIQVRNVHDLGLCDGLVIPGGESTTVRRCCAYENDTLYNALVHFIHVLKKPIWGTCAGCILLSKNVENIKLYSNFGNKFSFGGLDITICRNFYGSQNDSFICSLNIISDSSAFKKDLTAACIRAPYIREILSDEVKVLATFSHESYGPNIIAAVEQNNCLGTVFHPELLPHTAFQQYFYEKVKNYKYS
UniProt Q8I5R7, sequence (Q8I5R7 whole entry): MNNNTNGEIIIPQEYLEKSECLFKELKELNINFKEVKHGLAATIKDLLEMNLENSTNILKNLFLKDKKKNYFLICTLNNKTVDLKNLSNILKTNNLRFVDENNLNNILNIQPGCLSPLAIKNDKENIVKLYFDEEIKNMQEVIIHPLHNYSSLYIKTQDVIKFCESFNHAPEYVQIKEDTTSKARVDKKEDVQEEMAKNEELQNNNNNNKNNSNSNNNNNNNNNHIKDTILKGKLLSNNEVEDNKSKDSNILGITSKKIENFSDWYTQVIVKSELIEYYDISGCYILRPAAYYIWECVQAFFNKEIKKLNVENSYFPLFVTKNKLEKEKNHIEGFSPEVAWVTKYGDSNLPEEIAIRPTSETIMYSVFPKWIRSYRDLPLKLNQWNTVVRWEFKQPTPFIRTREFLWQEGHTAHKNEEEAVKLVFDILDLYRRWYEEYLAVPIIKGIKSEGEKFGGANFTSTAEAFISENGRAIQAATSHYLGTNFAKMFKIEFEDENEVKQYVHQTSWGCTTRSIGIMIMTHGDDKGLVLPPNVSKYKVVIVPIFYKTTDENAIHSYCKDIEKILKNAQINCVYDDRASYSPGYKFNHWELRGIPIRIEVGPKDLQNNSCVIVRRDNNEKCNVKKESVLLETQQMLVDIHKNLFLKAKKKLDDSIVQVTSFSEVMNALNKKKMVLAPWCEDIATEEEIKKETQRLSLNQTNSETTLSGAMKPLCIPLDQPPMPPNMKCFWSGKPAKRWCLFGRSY
UniProt Q7KQM0, sequence (Q7KQM0 whole entry): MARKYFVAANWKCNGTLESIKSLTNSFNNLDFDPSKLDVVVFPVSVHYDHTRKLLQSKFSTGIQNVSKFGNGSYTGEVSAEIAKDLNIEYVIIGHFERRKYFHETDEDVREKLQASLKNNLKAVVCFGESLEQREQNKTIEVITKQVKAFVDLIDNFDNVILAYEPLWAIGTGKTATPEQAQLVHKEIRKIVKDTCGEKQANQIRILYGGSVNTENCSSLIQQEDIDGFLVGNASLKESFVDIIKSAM

O=c1[nH]c2ccc(Cl)cc2c(NC2CN3CCC2CC3)c1-c1nc2ccccc2[nH]1 (stereo unspecified) [CHIR-124]
> 20 µM: UniProt Q8ILN8 | UniProt Q8IBQ6 | UniProt Q7KQM0 | UniProt Q8I5R7 | UniProt C6KSR5 | UniProt Q8II22 | UniProt Q8II72 | UniProt Q8IB66 | UniProt Q8IKH8 | UniProt C0H4V4 | UniProt O96198 | UniProt Q8I1Z8 | UniProt C0H4A6 | UniProt Q8I502 | UniProt Q8I5S4 | UniProt Q8I2X4 | UniProt Q8IIK2 | UniProt Q8I3Q6 | UniProt C0H4L1 | UniProt Q8IIK4 | UniProt Q8I1S0 | UniProt Q8I3Y8 | UniProt Q8IJQ9 | UniProt Q8I3T8 | UniProt Q8IJN7 | UniProt C0H516 | UniProt Q8IHT3 | UniProt Q8I2X0 | UniProt Q8IDZ8 | UniProt C6KSY6 | UniProt Q8II92 | UniProt Q8IB24 | UniProt C6KSX2 | UniProt Q8ID96 | UniProt Q8IAU0 | UniProt Q8I5Y9 | UniProt Q8I328 | UniProt Q8IAX6 | UniProt O97284 | UniProt C6KSV4 | UniProt Q8IIQ6 | UniProt Q8IDB7 | UniProt Q8II79 | UniProt Q8IBN5 | UniProt Q8I3Y9 | UniProt Q8ID50 | UniProt C6KT19 | UniProt Q8IBU2 | UniProt Q8IAU1 | UniProt Q8I353 | UniProt Q8IIK8
